Values of other authors in patent US20060234993A1, “Use of androstane derivatives for enhancing physical performance” (priority 2005, published 2006).
Read-outs that look alike come from different tables or passages of the source.

Tests used:
[1] = in vivo
[2] = tested on: mice

SMILES	estrogenic and androgenic side effects, including gynecomastia, water retention (edema), fat retention, prostate enlargement, acne, hair loss [1]	body weight ([2]; normal mice)	body weight ([2]; obese mice)
C[C@]12CC[C@H](O)CC1=CC[C@@H]1[C@@H]2CC[C@]2(C)C(=O)CC[C@@H]12 [DHEA, dehydroepiandrosterone]	negative estrogenic and androgenic side effects		
C[C@]12CC[C@@H](O)C[C@H]1CC[C@@H]1[C@@H]2CC[C@]2(C)C(=O)CC[C@@H]12 [Etiocholanolone, 3-alpha (beta)-hydroxy-5β-androstan-17-one]		reduce body weight	reduce body weight
